Literature values as cited in patent US20180243207A1, “DUAL-RELEASE FLEXIBLE F[…] IN […] HOSPICE CARES OF ELDERLY PATIENTS” (priority 2017, published 2018).

What was measured:
α2-GABAA receptors = target: T1, α2-GABAA receptors (Homo sapiens, UniProt P18507+P47869)
T1 sequence (P47869 29-451): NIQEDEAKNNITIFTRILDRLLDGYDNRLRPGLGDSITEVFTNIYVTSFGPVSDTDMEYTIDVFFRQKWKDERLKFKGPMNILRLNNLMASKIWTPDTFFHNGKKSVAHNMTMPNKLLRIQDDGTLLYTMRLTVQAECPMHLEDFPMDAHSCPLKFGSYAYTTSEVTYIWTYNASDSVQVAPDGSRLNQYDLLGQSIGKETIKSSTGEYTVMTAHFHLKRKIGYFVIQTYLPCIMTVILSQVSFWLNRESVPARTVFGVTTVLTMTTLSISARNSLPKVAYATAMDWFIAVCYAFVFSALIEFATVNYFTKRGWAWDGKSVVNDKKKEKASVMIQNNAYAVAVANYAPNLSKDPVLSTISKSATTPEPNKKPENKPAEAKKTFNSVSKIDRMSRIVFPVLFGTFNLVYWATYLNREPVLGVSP
T1 sequence (P18507 40-467 limits assumed): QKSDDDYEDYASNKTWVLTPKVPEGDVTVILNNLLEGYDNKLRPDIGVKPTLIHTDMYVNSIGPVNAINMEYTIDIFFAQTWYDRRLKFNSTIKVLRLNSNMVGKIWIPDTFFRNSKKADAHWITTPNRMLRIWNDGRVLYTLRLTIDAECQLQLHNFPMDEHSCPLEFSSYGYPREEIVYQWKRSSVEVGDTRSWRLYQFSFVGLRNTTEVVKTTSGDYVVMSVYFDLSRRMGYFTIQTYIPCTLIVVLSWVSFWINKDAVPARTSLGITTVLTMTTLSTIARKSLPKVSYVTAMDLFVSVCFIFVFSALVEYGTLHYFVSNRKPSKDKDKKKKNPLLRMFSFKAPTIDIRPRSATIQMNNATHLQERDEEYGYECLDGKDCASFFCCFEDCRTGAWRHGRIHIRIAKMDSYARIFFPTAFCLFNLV
T1 sequence (P28472 26-473 partner): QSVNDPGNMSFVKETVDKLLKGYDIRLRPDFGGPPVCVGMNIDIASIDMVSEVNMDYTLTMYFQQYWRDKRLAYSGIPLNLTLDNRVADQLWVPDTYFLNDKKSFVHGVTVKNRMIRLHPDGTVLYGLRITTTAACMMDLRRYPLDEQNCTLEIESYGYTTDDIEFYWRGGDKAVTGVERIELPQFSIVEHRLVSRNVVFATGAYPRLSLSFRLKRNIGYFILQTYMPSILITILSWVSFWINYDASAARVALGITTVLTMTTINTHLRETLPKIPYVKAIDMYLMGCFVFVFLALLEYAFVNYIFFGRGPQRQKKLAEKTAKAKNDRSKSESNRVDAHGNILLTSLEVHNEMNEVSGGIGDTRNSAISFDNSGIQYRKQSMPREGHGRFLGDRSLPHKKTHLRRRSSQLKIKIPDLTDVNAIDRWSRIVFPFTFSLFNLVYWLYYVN

α3-GABAA receptors = target: T2, α3-GABAA receptors (Homo sapiens, UniProt P18507+P34903)
T2 sequence (P34903 29-492): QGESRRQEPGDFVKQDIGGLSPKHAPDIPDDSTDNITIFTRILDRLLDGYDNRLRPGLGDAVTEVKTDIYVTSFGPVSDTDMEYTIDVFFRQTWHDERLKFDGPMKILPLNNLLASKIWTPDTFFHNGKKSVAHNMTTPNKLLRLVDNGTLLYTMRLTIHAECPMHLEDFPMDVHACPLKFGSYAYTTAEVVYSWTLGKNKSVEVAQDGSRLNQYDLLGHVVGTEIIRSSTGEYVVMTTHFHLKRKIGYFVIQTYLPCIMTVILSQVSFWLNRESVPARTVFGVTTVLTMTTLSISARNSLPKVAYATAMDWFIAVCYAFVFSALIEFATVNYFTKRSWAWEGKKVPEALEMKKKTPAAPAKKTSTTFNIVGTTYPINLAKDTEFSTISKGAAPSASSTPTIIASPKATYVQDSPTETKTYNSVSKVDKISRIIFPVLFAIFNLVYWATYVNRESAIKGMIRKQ
T2 sequence (P18507 40-467 limits assumed): T1 sequence (P18507 40-467 limits assumed)
T2 sequence (P28472 26-473 partner): T1 sequence (P28472 26-473 partner)

SMILES: O=C1Nc2ccc(Cl)cc2C(c2ccccc2Cl)=NC1O (centres unmarked) [Lorazepam]
- affinity to α2-GABAA receptors (α2-GABAA receptors): intermediate
- affinity to α3-GABAA receptors (α3-GABAA receptors): high
